For orientation: melting point means the temperature of the solid-liquid transition.

Each structure is given as a SMILES string.

For series [1], the system named is KMS12-BM (NIK WT) multiple myeloma cells. In words: Antiproliferative activity on KMS12-BM multiple myeloma cells (CellTiter-Glo, 96 hr), Biological Assay C. Format: cell-based, human. The following applies: Homo sapiens, KMS-12-BM, 96 h, averaged values, read-out: KMS-12 Proliferation inhibition (IC50 (nM)). An outline of the steps: (§1)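 JJN-3 and KMS12-BM cells in RPMI 1640 with 10% FCS were plated at 15000–20000 cells/well and treated 96 h with a 9-point 1:3 dilution series (0.3% DMSO). Viability read by CellTiter-Glo luminescence, blank (time-zero cells) subtracted, expressed as % of untreated control; duplicate wells.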
On the technique in general: Cellular ATP, detected with luciferase, serves as a proxy for viable cell number.

Series [2] deals with recombinant human NF-kappaB-inducing kinase (NIK/MAP3K14) (Homo sapiens, UniProt Q99558). The series is described as follows: Inhibition of auto-phosphorylation of recombinant human NIK/MAP3K14 activity (AlphaScreen), Biological Assay A. It is filed as biochemical. The following applies: averaged values over all measurements on all batches. An outline of the steps: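 GST-tagged enzyme (0.2 nM) incubated with compound and 25 μM ATP in 50 mM Tris pH 7.5, 5 mM MgCl2, 1 mM EGTA, 1 mM DTT, 0.1 mM Na3VO4, 1% DMSO, 1 h at 25 °C. Stopped with anti-phospho-IKK Ser176/180 antibody; AlphaScreen bead read, blank-subtracted, IC50 from sigmoidal fit.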
For orientation: Bead proximity is the source of the signal in Alpha formats.

Series [3] relates to JJN-3 (NIK translocated) multiple myeloma cells. The series is described as follows: Antiproliferative activity on JJN-3 multiple myeloma cells (CellTiter-Glo, 96 hr), Biological Assay C. It is filed as cell-based, human. The conditions noted are these: Homo sapiens, JJN-3, 96 h, JJN-3 (NIK translocated) cells, averaged values, read-out: JJN-3 Proliferation inhibition (IC50 (nM)). The gist of the method: as §1

The subject of series [4] is P-IKKα levels in L363 (NIK translocated multiple myeloma) cells. The series is described as follows: Effect of compounds on P-IKKα levels in L363 cells (Mesoscale sandwich immuno-assay), Biological Assay B. It is filed as cell-based, human. The following applies: Homo sapiens, L-363, 2 h, 2 hr treatment, averaged values, read-out: Inhibition of pIKKα_L-363 (IC50 (nM)). An outline of the steps: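 L363 NIK-translocated myeloma cells primed 24 h with 1 μg/ml BAFF (stock), then treated 2 h with compound (1% DMSO, 8-point 1:3 dilutions). Lysate P-IKKα measured by Mesoscale sandwich immunoassay; MG132+BAFF controls, blank with 10 μM ADS125117 subtracted. IC50 from sigmoidal fit of % inhibition versus log concentration.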

Sequence of recombinant human NF-kappaB-inducing kinase (NIK/MAP3K14) (Q99558 whole entry): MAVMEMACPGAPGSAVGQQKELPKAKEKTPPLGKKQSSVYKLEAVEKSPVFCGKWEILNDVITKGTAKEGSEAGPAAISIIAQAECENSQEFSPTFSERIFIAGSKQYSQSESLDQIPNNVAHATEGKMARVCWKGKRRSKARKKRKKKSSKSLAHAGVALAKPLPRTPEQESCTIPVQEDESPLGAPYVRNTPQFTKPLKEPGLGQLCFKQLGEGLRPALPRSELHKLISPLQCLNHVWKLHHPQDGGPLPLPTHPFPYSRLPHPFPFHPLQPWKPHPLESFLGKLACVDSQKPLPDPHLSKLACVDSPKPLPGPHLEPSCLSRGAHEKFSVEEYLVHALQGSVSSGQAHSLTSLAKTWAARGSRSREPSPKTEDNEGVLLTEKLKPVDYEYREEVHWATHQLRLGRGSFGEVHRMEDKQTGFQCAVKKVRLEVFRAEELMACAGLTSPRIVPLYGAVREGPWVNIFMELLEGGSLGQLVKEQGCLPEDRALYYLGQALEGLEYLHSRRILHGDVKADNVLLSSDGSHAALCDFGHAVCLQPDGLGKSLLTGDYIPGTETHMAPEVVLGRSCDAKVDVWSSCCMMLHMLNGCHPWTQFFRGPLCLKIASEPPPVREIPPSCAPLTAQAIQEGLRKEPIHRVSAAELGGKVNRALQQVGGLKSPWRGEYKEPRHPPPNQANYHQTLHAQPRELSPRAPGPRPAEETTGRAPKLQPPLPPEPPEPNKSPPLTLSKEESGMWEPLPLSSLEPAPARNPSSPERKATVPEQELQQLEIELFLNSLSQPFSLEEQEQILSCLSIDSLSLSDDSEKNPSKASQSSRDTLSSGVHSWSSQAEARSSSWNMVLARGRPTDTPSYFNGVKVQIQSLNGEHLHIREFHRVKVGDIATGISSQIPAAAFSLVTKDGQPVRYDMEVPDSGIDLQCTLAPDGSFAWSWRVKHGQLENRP

Take `Cc1c(Nc2nccc(-c3cc(C#N)c4c(c3)[C@@](C)(CO)CN4)n2)cc(C#N)cc1C(=O)N1CCN(C)CC1` [Compound 203]: the melting point was 294 °C. Besides, the IC50 in series [1] was roughly 5890 nM. Further, in series [2], the IC50 was 6.6 nM. Moreover, the IC50 in series [3] amounted to 14 nM. In addition, the IC50 in series [4] worked out at 1.8 nM.
Taken in the same sequence, the figures for `[2H]C([2H])([2H])N1CCN(C(=O)c2cc(C#N)cc(Nc3nccc(-c4cc(C#N)c5c(c4)[C@@](C)(CO)CN5)n3)c2C)CC1` [Compound 204] were 297 °C, roughly 3980 nM, 6.2 nM, 14 nM and 1.5 nM.
Regarding `[2H]C1([2H])OC([2H])([2H])C([2H])([2H])N(C(=O)c2cccc(Nc3nccc(-c4cc(C#N)c5c(c4)[C@@](C)(CO)CN5)n3)c2C)C1([2H])[2H]` [Compound 205], the melting point turned out to be 201 °C. Besides, the IC50 in series [1] is greater than 10000 nM. The IC50 in series [2] worked out at 6 nM. Further, in series [3], the IC50 was 162 nM. In series [4], the IC50 came to 11.2 nM.
For `Cc1c(Nc2nccc(-c3cc(C#N)c4c(c3)[C@@](C)(CO)CN4)n2)cccc1C(=O)N1CCN(C2COC2)CC1` [Compound 207], in that order: 268 °C, roughly 9550 nM, 5 nM, 66 nM and 13.2 nM.
For `C[C@]1(CO)CNc2c(C#N)cc(-c3ccnc(Nc4cc(CO)c(F)cc4OC4CC4)n3)cc21` [Compound 208], in that order: 234 °C, greater than 10000 nM, 6.5 nM, 389 nM and 10.7 nM.
Taken in the same sequence, the figures for `C[C@]1(CO)CNc2c(C#N)cc(-c3ccnc(Nc4cc(C#N)c(F)cc4OC4CC4)n3)cc21` [Compound 209] were 254 °C, greater than 10000 nM, 14.5 nM, 132 nM and 14.8 nM.
In the case of `Cc1ccc(C#N)cc1Nc1ncnc(-c2cc(C#N)c3c(c2)[C@@](C)(CO)CN3)n1` [Compound 213], the melting point came to 304 °C. Moreover, the IC50 in series [1] is greater than 10000 nM. Also, in series [2], the IC50 was determined as 4.2 nM. The IC50 in series [3] is 1070 nM. The IC50 in series [4] was determined as 5 nM.
Taken in the same sequence, the figures for `COCCNCc1ccc(C)c(Nc2nccc(-c3cc(C#N)c4c(c3)[C@@](C)(CO)CN4)n2)c1` [Compound 217] were 151 °C, roughly 7940 nM, 9.8 nM, 4270 nM and 107 nM.
With `Cc1ccc(CN2CC(F)C2)cc1Nc1nccc(-c2cc(C#N)c3c(c2)[C@@](C)(CO)CN3)n1` [Compound 220], the melting point was 140 °C. Moreover, the IC50 in series [1] was greater than 10000 nM. Also, the IC50 in series [2] amounted to 10.2 nM. Further, the IC50 in series [3] was 4570 nM. Besides, the IC50 in series [4] was 72.4 nM.
With `CN1CCC(Oc2ccc(C#N)cc2Nc2nccc(-c3cc(C#N)c4c(c3)[C@@](C)(CO)CN4)n2)CC1` [Compound 223], the melting point came out at 129 °C. The IC50 in series [1] was roughly 851 nM. The IC50 in series [2] was 1.6 nM. Moreover, the IC50 in series [3] worked out at 23 nM. Further, in series [4], the IC50 was 3.1 nM.
`C[C@]1(CO)CNc2c(C#N)cc(-c3ccnc(Nc4cc(C#N)ccc4CN4CCOCC4)n3)cc21` [Compound 224] yielded a melting point of 238 °C. Also, the IC50 in series [1] is greater than 10000 nM. Also, the IC50 in series [2] is 14.1 nM. Further, the IC50 in series [3] was determined as 3240 nM. For the same molecule, the IC50 in series [4] is 83.2 nM.
For `C[C@]1(CO)CNc2c(C#N)cc(-c3ccnc(Nc4cc(C#N)ccc4CNC4CC4)n3)cc21` [Compound 225], in that order: 181 °C, greater than 10000 nM, 20 nM, 195 nM and 19.5 nM.
For `CN1CCN(Cc2ccc(C#N)cc2Nc2nccc(-c3cc(C#N)c4c(c3)[C@@](C)(CO)CN4)n2)CC1` [Compound 226], in that order: 298 °C, greater than 10000 nM, 4.3 nM, 74 nM and 33.1 nM.
For `C[C@]1(CO)CNc2c(C#N)cc(-c3ccnc(Nc4cc(C#N)ccc4CN4CC(F)(F)C4)n3)cc21` [Compound 227], in that order: 223 °C, roughly 3160 nM, 7.9 nM, 96 nM and 32.4 nM.
Molecule `CC1(CO)CNc2c(C#N)cc(-c3ccnc(Nc4cc(C#N)ccc4CN4CC(F)C4)n3)cc21` (centres unmarked) [Compound 228] came in with a melting point of 170 °C. For the same molecule, the IC50 in series [1] was greater than 10000 nM. Further, in series [2], the IC50 worked out at 5.4 nM. For the same molecule, the IC50 in series [3] came out at 120 nM. In addition, the IC50 in series [4] was found to be 19.5 nM.
For `C[C@]1(CO)CNc2c(C#N)cc(-c3ccnc(Nc4cc(C#N)ccc4CCN4CC(F)C4)n3)cc21` [Compound 229], the melting point amounted to 207 °C. For the same molecule, in series [1], the IC50 is greater than 10000 nM. Also, the IC50 in series [2] was 7.6 nM. In addition, in series [3], the IC50 came to 251 nM. For the same molecule, the IC50 in series [4] worked out at 22.4 nM.
Taken in the same sequence, the figures for `Cc1ccc(OCCNC2CC2)c(Nc2nccc(-c3cc(C#N)c4c(c3)[C@@](C)(CO)CN4)n2)c1` [Compound 235] were 133 °C, 2690 nM, 3.9 nM, 457 nM and 60.3 nM.
Taken in the same sequence, the figures for `CN(C)Cc1cc(Nc2nccc(-c3cc(C#N)c4c(c3)[C@@](C)(CO)CN4)n2)ccc1C1CCOCC1` [Compound 236] were 249 °C, 178 nM, 2.6 nM, 32 nM and 42.7 nM.
For `CCS(=O)(=O)N(C)c1cccc(Nc2nccc(-c3cc(C#N)c4c(c3)C(C)(CO)CN4)n2)c1` (centres unmarked) [Compound 240], in that order: 259 °C, 302 nM, 2.5 nM, 44 nM and 11.2 nM.

The values above are taken from patent publication US11180487B2, “Substituted cyanoindoline derivatives as NIK inhibitors” (Janssen Pharmaceutica NV, priority 2016, dated 2021).
